Data on one substance can be found in US10160948B2, “Pluripotent embryonic-like stem cells, compositions, methods and uses thereof” (ABT HOLDING COMPANY, priority 1999, dated 2018).

For test [1], the system named is human mesenchymal stem cells. The test is described as follows: Insulin/dexamethasone analysis to identify progenitor and pluripotent cells (morphology). Type of test: cell-based. How it is done: Aliquots of CM-SkM, CF-SkM, NHDF, PAL#3, and PAL#2 cells were thawed and plated individually at 10,000 cells per well in 1% gelatin-coated 24-well plates [Corning, Corning, N.Y.] utilizing PM-B. After 24 hr PM-B was removed and replaced with either control medium, insulin testing medium, or dexamethasone testing medium. Control medium consisted of 98% (v/v) Opti-MEM containing 0.01 mM β-mercapto-ethanol, 1% (v/v) HS3, and 1% antibiotic-antimycotic solution. Insulin testing medium consisted of control medium containing 2 μg/ml insulin [Sigma]. Dexmethasone testing medium was composed of 98% Opti-MEM, 0.01 mM β-mercaptoethanol, 1% serum [HS3, HS9 (horse serum, lot number 90H-0701, Sigma) or FBS (fetal bovine serum, lot no. 3000L, Atlanta Biologicals, Norcross, Ga.)] and 1% antibiotic-antimycotic solution. […]
Discernible changes in phenotypic expression of the cells were assayed morphologically. These morphological tissue cellular types were identical to those previously noted in avian and mouse mesenchymal stem cells incubated with insulin or dexamethasone and extensively analyzed by histochemical and immunochemical procedures (Young et al., 1995; Rogers et al., 1995; Young et al., 1993; Young, 1999; Young et al., 1998). […]
Discernible changes in phenotypic expression of the putative mesenchymal stem cells were determined using morphological criteria. […]

Another test has as its system progenitor stem cells. The test is described as follows: Proliferation and phenotypic responses to bioactive factors: progenitor cells. It counts as cell-based. The text has this:
Having access to mixed populations of progenitor stem cells, progenitor stem cell clones, and pluripotent stem cell clones permits one to address the influence of various bioactive factors (e.g. recombinant growth factors, purified compounds, and novel inductive factors) on the growth characteristics and phenotypic expression of these stem cells.
Cryopreserved cells are thawed and plated in MSC-1 at 5, 10, or 20×10^3 cells per well of gelatinized 24-well plates following the standard protocol. Twenty-four hours after initial plating the medium is changed to testing medium (TM) 1 to 6 (TM-1, TM-2, TM-3, TM-4, TM-5, or TM-6). TM-1 to TM-4 consist of Ultraculture (cat. no. 12-725B, lot. nos. OMO455 [TM-1], 1M1724 [TM-2], 2M0420 [TM-3], or 2M0274 [TM-4], Bio-Whittaker, Walkersville, Md.), medium (EMEM or Opti-MEM 0.01 mM β-mercaptoethanol), and 1% (v/v) antibiotic-antimycotic, pH 7.4. TM-5 consists of 98% (v/v) medium, 1% (v/v) HS, and 1% (v/v) antibiotic-antimycotic, pH 7.4. TM-6 consists of 98.5% (v/v) medium, 0.5% (v/v) HS, and 1% (v/v) antibiotic-antimycotic, pH 7.4. […] Four testing media (TM#'s 1-4), each containing various concentrations of Ultraculture, were used as. […] The four Ultraculture-based testing media were: TM-1=15% (v/v) Ultraculture (Lot no. OMO455): 84% (v/v) medium: 1% (v/v) antibiotics; TM-2=15% (v/v) Ultraculture (Lot no. 1M1724): 84% (v/v) medium: 1% (v/v) antibiotics; TM-3=50% (v/v) Ultraculture (Lot no. 2M0420): 49% (v/v) medium: 1% (v/v) antibiotics; and TM-4=75% (v/v) Ultraculture (Lot no. 2M0274): 24% (v/v) medium: 1% (v/v) antibiotics. Pre-incubation for 24 hr in testing medium alone is used to wash out any potential synergistic components in the MSC-1 medium. Twenty-four hours later the testing medium is changed to one of the following. For controls, TM-1 to TM-6 alone is used. To identify clones of progenitor cells, the medium is replaced with TM-1 to TM-6 containing 2 μg/ml insulin (Sigma), an agent that accelerates the appearance of phenotypic expression markers in progenitor cells (TABLE 12). To identify clones of pluripotent cells, the medium is replaced with TM-1 to TM-6 containing 10^−10 to 10^−6 M dexamethasone (Sigma), a general non-specific lineage-inductive agent (TABLE 13). Control and treated cultures are propagated for an additional 30-45 days with medium changes every other day. Four culture wells are used per concentration per experiment. During the 0-45 day time period the cultures are examined subjectively for changes in morphological characteristics on a daily basis. Alterations in phenotypic expression are correlated with the days of treatment and associated insulin or dexamethasone concentrations. The experiment is then repeated utilizing these parameters to confirm objectively the phenotypic expression markers using established histological, functional/histochemical, ELICA/flow cytometry, and molecular assays (TABLE 13).

Turning to insulin, the “effect on phenotypic expression at 80 cell doublings” value in test [1] is reported as “had no effect on the cells”. For the same substance, in the test on progenitor stem cells, the “Proliferation, Progenitor: number of times the agent increased the DNA content per well versus its respective control” value is 2 times. The “Phenotypic Expression, Progenitor” value in the test with progenitor stem cells (presence and approximate distribution of differentiated phenotypes within the culture wells) was “All+++”.
